Experiments:
COX1 = test system: COX1; set-up: method as in Warner et al., 1999; settings: ref Warner et al., 1999; cited from earlier work
G189A/S15V-hP2X3R = assay: TEVC of ATP-induced currents, G189A/S15V-hP2X3R mutant in X. laevis oocytes; type: cell-based, human; settings: ± SEM
Protocol: Ion currents mediated by P2X receptors were evoked by the indicated concentration of ATP or α,β-meATP and were recorded 1 or 2 days after cRNA injection at ambient temperature at a holding potential of −60 mV by two-electrode voltage clamp (TEVC) as previously described ([Hausmann et al., 2006]). Calcium-free ORi^− solution (90 mM NaCl, 1 mM KCl, 2 mM MgCl2, 10 mM HEPES, pH 7.4) was used to avoid bias due to calcium-activated chloride channels (CaCC) endogenously expressed in X. laevis oocytes ([Miledi, 1982]; [Methfessel et al., 1986]). […]
In the case of fast-desensitizing P2XR subtypes (P2X1R and P2X3R), ATP is applied five times in repetition, and the ATP-induced current amplitude in the presence (after pre-incubation) of the antagonist (fourth application) is compared to the arithmetic mean of flanking control ATP-induced current amplitudes in the absence of the antagonist (third and fifth ATP application). […] The correction factor was calculated as the ratio of the fourth ATP-induced current amplitude to the third amplitude (Eq. 3) when the experiment was performed in the absence of the antagonist. […] Since the magnitude of the run-down varies from day to day and batch to batch of oocytes, the correction factor was determined on each day of the experiments and was calculated as the arithmetic mean of several recordings (at least 3–5 and on average 5) on each day.

hP2X4R = biological target: T1, hP2X4R (Homo sapiens, UniProt Q99571); assay: TEVC of ATP-induced currents, hP2X4R in X. laevis oocytes (steady-state protocol); type: cell-based
T1 construct: expressed in transfected cells; host or cells: Xenopus laevis oocytes (cRNA injection)
T1 sequence (Q99571 1-388): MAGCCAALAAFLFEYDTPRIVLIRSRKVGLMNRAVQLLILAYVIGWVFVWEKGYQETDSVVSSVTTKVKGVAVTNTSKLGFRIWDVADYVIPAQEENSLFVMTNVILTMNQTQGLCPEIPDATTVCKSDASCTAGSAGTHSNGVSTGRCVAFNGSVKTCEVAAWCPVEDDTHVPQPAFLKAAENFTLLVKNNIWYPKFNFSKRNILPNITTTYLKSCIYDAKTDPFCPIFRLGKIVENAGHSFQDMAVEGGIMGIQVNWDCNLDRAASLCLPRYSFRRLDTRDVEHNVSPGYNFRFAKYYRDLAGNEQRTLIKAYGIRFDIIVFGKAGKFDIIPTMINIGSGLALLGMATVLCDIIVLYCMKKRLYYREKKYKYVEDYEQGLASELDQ
Text: Oocyte expression plasmids encoding the wild-type (wt) and N-terminally His-tagged (His-) fusion constructs of the hP2X2R, hP2X3R, hP2X4R, and hP2X7R, and the mutant His-^20RMVL^23KVIV^23S^26N-hP2X1R, S^15V-rP2X3R, and His-S^15V-hP2X3R were the same as used in previous research ([Hausmann et al., 2006]; [Wolf et al., 2011]; [Hausmann et al., 2014]; [Obrecht et al., 2019]). In most cases, the N-terminal His-tagged variants of P2XRs were used here and in the previous studies to allow biochemical analyses on affinity-purified proteins using the same constructs. Although this was not required for the present study, it allows for better comparability with our previous studies. […]
Ion currents mediated by P2X receptors were evoked by the indicated concentration of ATP or α,β-meATP and were recorded 1 or 2 days after cRNA injection at ambient temperature at a holding potential of −60 mV by two-electrode voltage clamp (TEVC) as previously described ([Hausmann et al., 2006]). […]

O=C(O)Cc1ccccc1Nc1c(Cl)cccc1Cl [Diclofenac, diclofenac]
IC50 (COX1): […] | % inhibition of 10 µM ATP-induced currents by 10 µM diclofenac (G189A/S15V-hP2X3R): 6.4% ± 3.0% | IC50 (hP2X4R; 10 µM ATP, steady-state protocol, X. laevis oocytes): 1110 µM | inhibition at 1000 µM (hP2X4R; read-out: Max. inhibition at 1 mM): 61.2%

Source: publication PMC10060569 (Frontiers in Pharmacology, 2023)
